# Entries after “also recorded” stand apart in the source; their conditions may differ. Like-named read-outs stand apart in the source and are kept apart here.
# How the values were obtained:
# [1] = target: T1, C. albicans RNA polymerase II (Candida albicans, UniProt A0A1D8PUA6+Q5A8Y5); test: biochemical
# T1 construct: RNA elongation assay on calf thymus DNA
# Experimental: The following procedure is used for cell-free high-throughput screening. A Tomtec Quadra 96-well pipetting station is used to add the reaction components to polypropylene 96-well dishes. 5 μl aliquots of test compounds dissolved in DMSO (or DMSO alone as a control) are added to wells. This is followed by 20 μl of the RNA polymerase II mixture, which consists of: 10 mM DTT, 200 mM KCl, 10 mM Mn^+2, 1.5 μM bovine serum albumin, and 0.25 μg reconstituted RNA polymerase. After allowing the test compound to interact with the RNA polymerase, 25 μl of the DNA/NTP mixture is added, containing: 1 μg calf thymus DNA, 4 μM [α-^32 P]-UTP, and 400 μM each CTP, ATP, and GTP.
# After incubation for 60 min at 30 C, the reaction is stopped by addition of 50 μl 15% trichloroacetic acid (TCA). The TCA-precipitated RNA is adsorbed onto double-thick glass fiber filtermats using a Tomtec cell harvester. The wells of the microtiter plate and the filter are washed twice with 5% TCA and bound radioactivity is determined using a Wallac microbeta 1450 scintillation counter.
# Inhibitory activity due to the test compound is calculated according to the formula: [formula] where cpmpositive control represents the average of the cpm in wells that received DMSO alone, and cpmsample represents the cpm in the well that received test compound. Compounds that cause at least 50% inhibition are scored as positive "hits" in this assay.
# DNA-directed RNA polymerase II from Candida albicans was purified in sufficient quantity to support high throughput screening of large synthetic chemical and natural product libraries. A biochemical mechanism-based screen for detecting inhibitors of Pol II was developed and implemented. The screen is outlined in FIGS. 4A and 4B.
# [2] = target: T2, human Pol II (Homo sapiens, UniProt P24928+P30876); test: RNA polymerase II counterscreen, human pol II; assay type: biochemical
# T2 construct: Pol II was isolated from Aspergillus nidulans, Saccharomyces cerevisiae, and human cells; endogenous in cells; enzyme isolated from them
# Experimental: Pol II was isolated from Aspergillus nidulans, Saccharomyces cerevisiae, and human cells (FIG. 5) and used in secondary screens for fungal spectrum and specificity. Pol I and Pol III were isolated from Candida albicans and used as an additional mechanism to study specificity. Confirmed hits form the primary assay and were evaluated against this panel of polymerases. Agents with activity against Pol II from multiple fungal enzymes but not against the human counterpart were evaluated in vitro against fungal pathogens.
# [3] = system: fungal pathogens; test: In vitro antifungal activity (MIC); assay type: cell-based
# [4] = system: Fusarium culmorum; test: MIC against plant pathogen; assay type: cell-based
# [5] = system: Trichophyton mentagrophytes; test: Activity against human dermatophytic fungi; assay type: cell-based
# [6] = system: monkey kidney cells; test: Toxicity against monkey kidney cells; assay type: cell-based
# [7] = system: Candida strains resistance to ketoconazole or to amphotericin B; test: Antifungal activity against resistant Candida strains; assay type: cell-based
# [8] = system: C. albicans; test: Time course of fungicidal activity, C. albicans; assay type: cell-based, Candida albicans
# Excerpt: (§1) Compound 1 is rapidly fungicidal.
# [9] = system: S. cerevisiae; test: Time course of fungicidal activity, S. cerevisiae; assay type: cell-based, Saccharomyces cerevisiae
# Excerpt: as §1
# [10] = system: systemic Candida infection; test: Murine model for systemic candidiasis; assay type: in vivo, mouse
# Experimental: (§2) In addition, Compound 1 was efficacious in a murine model for systemic candidiasis (FIG. 10). It prolonged mean and median survival times of treated mice in the dosage range of 5 mg/kg/d to 100 mg/kg/d on aq.d., d2-11 schedule. […] The efficacy of Compound 1 was confirmed in a separate experiment using amphotericin as a control (FIG. 11). Compound 1 was also efficacious when administered orally to mice with an established systemic Candida infection (FIG. 12). […] Compound 1 is also effective against systemic candidiasis caused by a strain of C. albicans resistant to fluconazole (FIG. 13). Additional animal testing will include acute toxicity determination, route and schedule dependency in standard efficacy models, efficacy testing in immunosuppressed Candida infected mice, efficacy in an Aspergillus infection model, and pharmacokinetics following IV and oral dosing.
# (§3) Compound 6 was evaluated for antifungal efficacy in a systemic candidiasis model in immunocompetent mice (FIG. 18). The compound was administered IP on a q.d., d2-11 schedule. […] 90% long term survival was seen formice treated with Compound 6 at 200/mg/kg. 30% of mice survived when treated with Compound 6 at 100 mg/kg/d. Compound 6 was also effective against systemic candidiasis when administered orally (FIG. 19) and it was effective in treating infections caused by fluconazole-resistant C. albicans.
# [11] = system: C. albicans resistant to fluconazole; test: Systemic candidiasis caused by fluconazole-resistant C. albicans; conditions: mouse, in vivo
# Experimental: as §2, §3
# [12] = Compound-related toxicity in treated mice; assay type: in vivo, mouse; conditions: IP or PO for 10 days at 100 mg/kg/d
# Experimental: as §2, §3
# [13] = system: C. albicans; test: Frequency of resistance study, C. albicans; assay type: cell-based, Candida albicans; conditions: selective concentrations 1× to 10× the MIC
# Experimental: A frequency of resistance study is conducted for Compound 1 using C. albicans and S. cerevisiae, with amphotericin B as the comparator. Selective concentrations of each compound between 1× and 10× the MIC are used for each compound.
# [14] = Safety assessment on target panel
# Experimental: (§4) A safety assessment of Compound 1 was conducted. The compound was negative for effects in a number of CNS, cardiovascular, intermediary metabolism, allergy/inflammation and gastrointestinal targets. The compound was nontoxic when administered orally at 300 mg/kg.
# [15] = Safety assessment, oral toxicity; assay type: in vivo; conditions: orally at 300 mg/kg
# Experimental: as §4
# [16] = system: C. albicans; test: MIC alone and with sub-MIC amphotericin B, C. albicans; assay type: cell-based, Candida albicans
# Excerpt: (§5) This synergy was not seen in an amphotericin-resistant strain. Subsequent experiments in a 2-way titration format confirmed the synergistic activity of the combination (FIG. 18). The synergy noted between these two agents was unique among the tested antifungal compounds, and was not noted for other promising compounds identified in the high throughput screen.
# [17] = system: wild type C. tropicalis; test: MIC alone and with sub-MIC amphotericin B, C. tropicalis; assay type: cell-based, Candida tropicalis
# Excerpt: as §5
# [18] = system: amphotericin-resistant strain; test: Synergy with amphotericin B in amphotericin-resistant strain; assay type: cell-based
# Excerpt: as §5
# T1 sequence (A0A1D8PUA6 1-1728): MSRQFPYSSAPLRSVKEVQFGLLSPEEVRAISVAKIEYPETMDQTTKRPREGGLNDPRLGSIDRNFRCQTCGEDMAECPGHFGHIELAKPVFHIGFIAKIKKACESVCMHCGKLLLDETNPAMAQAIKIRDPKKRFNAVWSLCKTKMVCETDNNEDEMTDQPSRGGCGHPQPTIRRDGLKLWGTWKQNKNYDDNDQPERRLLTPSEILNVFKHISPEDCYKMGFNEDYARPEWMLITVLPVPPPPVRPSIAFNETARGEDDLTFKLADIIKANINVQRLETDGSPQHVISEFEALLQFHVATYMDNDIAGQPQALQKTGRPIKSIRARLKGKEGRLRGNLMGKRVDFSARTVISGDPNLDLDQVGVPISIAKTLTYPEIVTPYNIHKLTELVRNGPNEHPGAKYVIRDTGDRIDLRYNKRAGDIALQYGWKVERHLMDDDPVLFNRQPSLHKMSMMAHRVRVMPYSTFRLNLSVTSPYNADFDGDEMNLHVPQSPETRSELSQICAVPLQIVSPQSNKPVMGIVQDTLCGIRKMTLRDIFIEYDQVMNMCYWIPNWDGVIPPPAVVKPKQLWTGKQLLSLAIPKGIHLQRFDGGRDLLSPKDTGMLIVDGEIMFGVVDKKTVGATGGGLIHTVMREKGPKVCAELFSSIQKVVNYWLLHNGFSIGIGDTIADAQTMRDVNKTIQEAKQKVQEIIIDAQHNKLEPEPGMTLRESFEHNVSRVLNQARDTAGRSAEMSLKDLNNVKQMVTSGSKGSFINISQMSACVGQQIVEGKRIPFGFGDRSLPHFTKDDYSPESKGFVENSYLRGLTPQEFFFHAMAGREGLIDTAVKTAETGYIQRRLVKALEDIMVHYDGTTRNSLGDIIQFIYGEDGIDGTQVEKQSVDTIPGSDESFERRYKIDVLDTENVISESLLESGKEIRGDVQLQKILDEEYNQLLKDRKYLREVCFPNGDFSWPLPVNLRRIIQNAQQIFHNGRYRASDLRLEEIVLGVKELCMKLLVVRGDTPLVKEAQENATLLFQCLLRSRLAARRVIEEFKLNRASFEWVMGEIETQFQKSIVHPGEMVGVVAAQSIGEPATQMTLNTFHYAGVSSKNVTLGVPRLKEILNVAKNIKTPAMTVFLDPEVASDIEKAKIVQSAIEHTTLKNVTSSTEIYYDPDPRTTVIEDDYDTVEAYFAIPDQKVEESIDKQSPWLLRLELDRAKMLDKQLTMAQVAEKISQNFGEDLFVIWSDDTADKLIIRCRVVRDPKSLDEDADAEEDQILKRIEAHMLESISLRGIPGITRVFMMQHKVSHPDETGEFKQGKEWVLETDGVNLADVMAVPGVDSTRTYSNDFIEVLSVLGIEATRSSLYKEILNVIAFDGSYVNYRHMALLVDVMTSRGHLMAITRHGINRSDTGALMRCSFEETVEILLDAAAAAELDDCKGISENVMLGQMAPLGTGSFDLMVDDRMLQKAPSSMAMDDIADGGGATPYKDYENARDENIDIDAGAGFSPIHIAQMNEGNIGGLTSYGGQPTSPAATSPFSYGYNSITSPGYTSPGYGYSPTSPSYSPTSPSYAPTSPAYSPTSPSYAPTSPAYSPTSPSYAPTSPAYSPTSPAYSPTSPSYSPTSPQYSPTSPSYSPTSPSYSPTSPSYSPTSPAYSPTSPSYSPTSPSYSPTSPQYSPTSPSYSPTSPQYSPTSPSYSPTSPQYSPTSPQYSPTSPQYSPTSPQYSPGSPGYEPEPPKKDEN
# T1 sequence (Q5A8Y5 1-1234): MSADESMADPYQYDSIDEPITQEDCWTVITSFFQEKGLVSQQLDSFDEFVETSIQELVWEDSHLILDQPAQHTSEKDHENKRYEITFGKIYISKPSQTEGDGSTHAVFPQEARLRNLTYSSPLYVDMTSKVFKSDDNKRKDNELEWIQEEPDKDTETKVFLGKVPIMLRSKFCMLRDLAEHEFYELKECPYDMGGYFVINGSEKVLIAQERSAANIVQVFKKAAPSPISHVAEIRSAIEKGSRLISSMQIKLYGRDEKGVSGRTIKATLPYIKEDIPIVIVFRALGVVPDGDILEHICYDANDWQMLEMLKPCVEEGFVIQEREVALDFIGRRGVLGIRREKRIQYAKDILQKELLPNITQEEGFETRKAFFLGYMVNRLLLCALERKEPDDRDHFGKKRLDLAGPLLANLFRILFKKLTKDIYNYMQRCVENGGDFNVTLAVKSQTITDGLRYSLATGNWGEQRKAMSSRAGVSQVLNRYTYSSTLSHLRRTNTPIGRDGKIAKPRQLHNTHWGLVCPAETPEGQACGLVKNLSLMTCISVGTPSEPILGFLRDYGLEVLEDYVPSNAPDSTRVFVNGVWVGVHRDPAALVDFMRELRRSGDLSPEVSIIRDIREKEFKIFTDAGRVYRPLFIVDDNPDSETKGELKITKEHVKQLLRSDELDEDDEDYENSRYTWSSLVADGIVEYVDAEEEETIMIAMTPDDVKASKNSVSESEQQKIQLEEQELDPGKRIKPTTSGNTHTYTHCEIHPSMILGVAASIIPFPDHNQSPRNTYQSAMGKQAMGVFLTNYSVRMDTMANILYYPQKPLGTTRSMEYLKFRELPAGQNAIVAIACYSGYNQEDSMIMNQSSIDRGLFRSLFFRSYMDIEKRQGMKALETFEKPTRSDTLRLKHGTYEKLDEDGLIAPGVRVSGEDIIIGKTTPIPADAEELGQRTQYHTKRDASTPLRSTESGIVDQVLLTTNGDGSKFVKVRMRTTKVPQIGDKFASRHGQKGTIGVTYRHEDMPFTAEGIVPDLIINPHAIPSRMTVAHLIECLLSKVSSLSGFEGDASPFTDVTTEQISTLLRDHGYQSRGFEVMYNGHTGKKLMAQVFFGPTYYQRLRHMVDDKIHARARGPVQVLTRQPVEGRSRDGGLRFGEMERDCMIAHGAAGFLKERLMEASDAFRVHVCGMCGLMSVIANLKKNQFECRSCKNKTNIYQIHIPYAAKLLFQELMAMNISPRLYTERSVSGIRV
smiles,measurement,setting,value
"Oc1ccc(N=Nc2cccc(C(F)(F)F)c2)cc1 [Compound 1, 4-[-2-[3-(trifluoromethyl)phenyl]diazenyl]-phenol]",fungal Pol II inhibition,[1],potent activity
same,IC50,"[1]; Table 1, read-out: IC50 Candida pol II",10 µM
same,inhibition at 20 µM,"[1]; at 20 μM, screening of azo library",59%
same,IC50,[2],43 µM
same,in vitro antifungal activity / spectrum,[3],broad spectrum in vitro activity
same,MIC,"[3]; Table 1, antifungal activity, read-out: MIC",16.6 µg/mL
same,MIC,[4],6.25 µg/mL
same,activity against Trichophyton mentagrophytes,[5],active
same,toxicity against monkey kidney cells,[6],essentially non-toxic
same,antifungal activity against resistant Candida strains,[7],retains antifungal activity
same,exposure time after which no CFUs are recoverable,[8]; C. albicans cells,5 min
same,colony forming units after exposure,"[8]; about 10^6 C. albicans cells, 25 μg/ml, 45 minutes",no detectable colony forming units
same,exposure time after which no CFUs are recoverable,[9]; S. cerevisiae cells,5 min
same,colony forming units after exposure,"[9]; about 10^6 S. cerevisiae cells, 25 μg/ml, 45 minutes",no detectable colony forming units
same,mean and median survival times of treated mice,"[10]; 5 mg/kg/d to 100 mg/kg/d, q.d., d2-11",prolonged
same,efficacy when administered orally,"[10]; mice with an established systemic Candida infection, oral",efficacious
same,recoverable colonies from the kidneys of treated animals,"[10]; systemic candidiasis, mice",reduced
same,efficacy against systemic candidiasis caused by fluconazole-resistant C. albicans,[11],effective
same,compound related toxicity,[12],No signs of compound related toxicity
same,frequency of resistance,[13],< 1×10^-8
same,effects in safety assessment targets,[14],negative
same,toxicity when administered orally,[15],nontoxic
CCCCN(CCO)c1ccc(N=Nc2c(Br)cc([N+](=O)[O-])cc2[N+](=O)[O-])c(C)c1 [Compound 2],fungal Pol II inhibition,[1],potent inhibitor
same,fungicidal or fungistatic character,[3],does not appear to be fungicidal; also recorded: fungistatic rather than fungicidal
same,MIC,"[3]; in combination with amphotericin B, strain not named",1 to 2 µg/mL
same,potency against Candida albicans in vitro,[16],relatively low potency
same,synergy with amphotericin B,[16],act synergistically
same,MIC,"[16]; alone, ketoconazole resistant C. albicans",80 µg/mL
same,MIC,"[16]; alone, wild type C. albicans",80 µg/mL
same,MIC,"[16]; with sub-MIC amphotericin B (1/3 of the MIC), ketoconazole resistant C. albicans",1 to 2 µg/mL
same,MIC,"[16]; with sub-MIC amphotericin B (1/3 of the MIC), wild type C. albicans",1 to 2 µg/mL
same,MIC,[17]; alone,80 µg/mL
same,MIC,[17]; with sub-MIC amphotericin B (1/3 of the MIC),1 to 2 µg/mL
same,synergy with amphotericin B,[18],not seen
